Laboratory results: ChEMBL document CHEMBL1909046, “DrugMatrix in vitro pharmacology data”

Assays:
[1] = biological target: Beta-3 adrenergic receptor (Homo sapiens, UniProt P13945); experiment: DRUGMATRIX: Adrenergic beta3 radioligand binding (ligand: [125I] Cyanopindolol); format: cell membranes, HEK293, Membrane; details: Not Active = under 50% inhibition at 10 µM
[2] = biological target: Sodium-dependent noradrenaline transporter (Homo sapiens, UniProt P23975); experiment: DRUGMATRIX: Norepinephrine Transporter radioligand binding (ligand: [125I] RTI-55); format: cell membranes, MDCK, Membrane; details: Not Active = under 50% inhibition at 10 µM
[3] = DRUGMATRIX: Atrial Natriuretic Factor (ANF) radioligand binding (ligand: [125I] ANF (rat)); format: cell membranes, Cavia porcellus, Dunkin-Hartley, Adrenal gland, Membrane; details: Not Active = under 50% inhibition at 10 µM
[4] = DRUGMATRIX: Glutamate, AMPA radioligand binding (ligand: [3H] AMPA); format: cell membranes, Rattus norvegicus, Wistar, Cerebral cortex, Membrane; details: Not Active = under 50% inhibition at 10 µM
[5] = DRUGMATRIX: Glutamate, NMDA, Phencyclidine radioligand binding (ligand: [3H] TCP); format: cell membranes, Rattus norvegicus, Wistar, Cerebral cortex, Membrane; details: Not Active = under 50% inhibition at 10 µM
[6] = biological target: T1, Angiotensin-converting enzyme (Oryctolagus cuniculus, UniProt P12822); format: tissue-based, Lung;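 also: enzymatic inhibition of angiotensin-converting enzyme measured with FAPGG as the substrate; in other assays of this panel Not Active means under 50% inhibition at 10 µM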
T1 sequence (P12822 whole entry): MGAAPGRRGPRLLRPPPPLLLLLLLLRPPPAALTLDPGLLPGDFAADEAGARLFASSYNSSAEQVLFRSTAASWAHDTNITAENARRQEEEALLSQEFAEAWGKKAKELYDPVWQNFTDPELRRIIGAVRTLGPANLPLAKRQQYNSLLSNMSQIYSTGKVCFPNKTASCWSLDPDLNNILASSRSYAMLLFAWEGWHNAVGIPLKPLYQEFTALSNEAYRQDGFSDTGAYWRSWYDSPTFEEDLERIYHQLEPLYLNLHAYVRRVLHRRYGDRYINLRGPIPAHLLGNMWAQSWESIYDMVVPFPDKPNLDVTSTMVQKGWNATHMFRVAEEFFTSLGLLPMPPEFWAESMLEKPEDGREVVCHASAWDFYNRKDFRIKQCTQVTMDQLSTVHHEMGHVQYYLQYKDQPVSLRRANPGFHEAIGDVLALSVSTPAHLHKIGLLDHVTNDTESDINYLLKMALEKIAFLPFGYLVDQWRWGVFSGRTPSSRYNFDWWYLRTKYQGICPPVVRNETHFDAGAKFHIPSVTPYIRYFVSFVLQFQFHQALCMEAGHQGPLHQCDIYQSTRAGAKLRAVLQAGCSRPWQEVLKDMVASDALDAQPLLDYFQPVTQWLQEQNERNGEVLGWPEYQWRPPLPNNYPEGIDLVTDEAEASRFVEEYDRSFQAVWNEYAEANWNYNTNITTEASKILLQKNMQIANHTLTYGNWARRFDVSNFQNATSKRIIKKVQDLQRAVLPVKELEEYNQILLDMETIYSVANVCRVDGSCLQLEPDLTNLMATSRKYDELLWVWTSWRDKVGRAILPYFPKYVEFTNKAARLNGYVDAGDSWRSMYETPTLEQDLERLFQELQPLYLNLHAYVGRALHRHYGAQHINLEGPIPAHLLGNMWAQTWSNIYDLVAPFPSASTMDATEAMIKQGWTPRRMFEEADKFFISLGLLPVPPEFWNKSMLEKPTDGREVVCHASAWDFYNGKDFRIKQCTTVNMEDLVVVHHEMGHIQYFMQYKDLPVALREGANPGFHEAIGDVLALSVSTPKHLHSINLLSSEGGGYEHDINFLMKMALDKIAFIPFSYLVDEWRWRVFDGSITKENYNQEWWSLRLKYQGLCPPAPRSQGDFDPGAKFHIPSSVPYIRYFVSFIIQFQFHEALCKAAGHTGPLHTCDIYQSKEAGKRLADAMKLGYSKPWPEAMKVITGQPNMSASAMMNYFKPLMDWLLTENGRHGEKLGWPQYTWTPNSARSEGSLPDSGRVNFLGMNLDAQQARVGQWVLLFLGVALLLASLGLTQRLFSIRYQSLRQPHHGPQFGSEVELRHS

Neutrophil elastase = biological target: T2, Neutrophil elastase (Homo sapiens, UniProt P08246); format: tissue-based;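 also: inhibition of neutrophil elastase enzyme activity, measured with a p-nitroanilide-linked peptide substrate; in other assays of this panel Not Active means under 50% inhibition at 10 µM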
T2 sequence (P08246 whole entry): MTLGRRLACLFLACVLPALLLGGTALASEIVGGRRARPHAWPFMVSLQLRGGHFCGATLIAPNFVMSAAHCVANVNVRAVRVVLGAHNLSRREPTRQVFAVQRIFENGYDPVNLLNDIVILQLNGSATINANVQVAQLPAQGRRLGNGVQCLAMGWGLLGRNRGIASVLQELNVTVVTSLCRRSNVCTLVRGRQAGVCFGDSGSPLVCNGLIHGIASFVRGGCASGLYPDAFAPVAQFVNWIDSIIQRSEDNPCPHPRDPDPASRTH

Chain of Beta-3 adrenergic receptor (P13945 whole entry): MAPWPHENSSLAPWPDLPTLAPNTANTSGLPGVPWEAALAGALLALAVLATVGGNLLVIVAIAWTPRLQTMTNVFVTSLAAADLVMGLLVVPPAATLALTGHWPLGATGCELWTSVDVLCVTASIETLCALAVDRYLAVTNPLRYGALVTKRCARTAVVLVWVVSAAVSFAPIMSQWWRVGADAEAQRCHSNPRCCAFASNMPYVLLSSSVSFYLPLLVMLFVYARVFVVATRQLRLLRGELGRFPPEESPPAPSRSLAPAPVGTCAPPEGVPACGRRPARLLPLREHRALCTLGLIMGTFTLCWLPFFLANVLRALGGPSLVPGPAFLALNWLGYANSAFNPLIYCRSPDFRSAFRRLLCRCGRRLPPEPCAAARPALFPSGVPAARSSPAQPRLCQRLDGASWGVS
Chain of Sodium-dependent noradrenaline transporter (P23975 whole entry): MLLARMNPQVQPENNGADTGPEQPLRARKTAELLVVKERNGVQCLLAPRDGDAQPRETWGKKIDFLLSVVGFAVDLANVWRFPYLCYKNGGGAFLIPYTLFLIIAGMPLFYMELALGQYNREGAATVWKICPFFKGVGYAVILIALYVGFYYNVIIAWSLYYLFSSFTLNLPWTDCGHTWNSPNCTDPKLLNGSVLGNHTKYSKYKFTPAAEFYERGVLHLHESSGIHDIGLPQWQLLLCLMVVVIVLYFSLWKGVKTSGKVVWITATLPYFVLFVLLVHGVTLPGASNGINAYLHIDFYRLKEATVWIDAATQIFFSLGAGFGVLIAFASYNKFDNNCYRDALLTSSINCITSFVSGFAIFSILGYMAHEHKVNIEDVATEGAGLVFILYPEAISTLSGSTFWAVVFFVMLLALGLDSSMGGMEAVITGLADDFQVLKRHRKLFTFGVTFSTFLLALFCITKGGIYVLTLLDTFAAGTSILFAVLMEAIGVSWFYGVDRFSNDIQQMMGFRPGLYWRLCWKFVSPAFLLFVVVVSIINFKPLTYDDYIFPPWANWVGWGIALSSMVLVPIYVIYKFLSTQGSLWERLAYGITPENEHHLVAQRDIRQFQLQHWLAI

Structure (SMILES) | IC50 ([1]; hek293) | IC50 ([2]; mdck) | IC50 [3] | Ki [3] | IC50 [4] | Ki [4] | IC50 [5] | Ki [5] | IC50 [6] | IC50 (Neutrophil elastase) | IC50 ([1]; read-out: IC50) | Ki ([1]; read-out: Ki) | IC50 ([2]; read-out: IC50) | Ki ([2]; read-out: Ki)
CN(C)c1nc(N(C)C)nc(N(C)C)n1 [ALTRETAMINE] | Not Active | Not Active | Not Active | Not Active | Not Active | Not Active | Not Active | Not Active | Not Active | Not Active |  |  |  | 
OC(Cn1cncn1)(Cn1cncn1)c1ccc(F)cc1F [FLUCONAZOLE] | Not Active | Not Active | Not Active | Not Active | Not Active | Not Active | Not Active | Not Active | Not Active | Not Active |  |  |  | 
C[C@]12CCC(=O)C=C1CC[C@@H]1[C@@H]2CC[C@@]2(C)[C@H]1CC[C@]2(C)O [METHYLTESTOSTERONE] | Not Active | Not Active | Not Active | Not Active | Not Active | Not Active | Not Active | Not Active | Not Active | Not Active |  |  |  | 
O=c1oc2ccccc2c(O)c1Cc1c(O)c2ccccc2oc1=O [DICUMAROL] | Not Active | Not Active | Not Active | Not Active | Not Active | Not Active | Not Active | Not Active | Not Active | Not Active |  |  |  | 
N=C(N)NCCN1CCCCCCC1 [GUANETHIDINE] | Not Active | Not Active | Not Active | Not Active | Not Active | Not Active | Not Active | Not Active | Not Active | Not Active |  |  |  | 
Cc1cc(C2CCCCC2)n(O)c(=O)c1 [CICLOPIROX] | Not Active | Not Active | Not Active | Not Active | Not Active | Not Active | Not Active | Not Active | Not Active | Not Active |  |  |  | 
CCOc1ccc(NC(C)=O)cc1 [PHENACETIN] | Not Active | Not Active | Not Active | Not Active | Not Active | Not Active | Not Active | Not Active | Not Active | Not Active |  |  |  | 
NC1=NC(=O)C(c2ccccc2)O1 (configuration not stated) [PEMOLINE] | Not Active | Not Active | Not Active | Not Active | Not Active | Not Active | Not Active | Not Active | Not Active | Not Active |  |  |  | 
C[C@H](CCC(=O)O)[C@H]1CC[C@H]2[C@@H]3[C@H](O)C[C@@H]4C[C@H](O)CC[C@]4(C)[C@H]3C[C@H](O)[C@]12C [CHOLIC ACID] | Not Active | Not Active | Not Active | Not Active | Not Active | Not Active | Not Active | Not Active | Not Active | Not Active |  |  |  | 
CC(C)C(Br)C(=O)NC(N)=O (configuration not stated) [BROMISOVALUM] | Not Active | Not Active | Not Active | Not Active | Not Active | Not Active | Not Active | Not Active | Not Active | Not Active |  |  |  | 
C[C@H]1c2cccc(O)c2C(=O)C2=C(O)[C@]3(O)C(=O)C(C(N)=O)=C(O)[C@@H](N(C)C)[C@@H]3[C@@H](O)[C@@H]21.O [DOXYCYCLINE] | Not Active | Not Active | Not Active | Not Active | Not Active | Not Active | Not Active | Not Active | Not Active | Not Active |  |  |  | 
CC(O)CO (configuration not stated) [PROPYLENE GLYCOL] | Not Active | Not Active | Not Active | Not Active | Not Active | Not Active | Not Active | Not Active | Not Active | Not Active |  |  |  | 
Cc1c(O)c(=O)ccn1C [DEFERIPRONE] | Not Active | Not Active | Not Active | Not Active | Not Active | Not Active | Not Active | Not Active | Not Active | Not Active |  |  |  | 
CC(C)[C@@]1(NC(=O)[C@@H]2C[C@@H]3c4cccc5[nH]cc(c45)C[C@H]3N(C)C2)O[C@@]2(O)[C@@H]3CCCN3C(=O)[C@H](Cc3ccccc3)N2C1=O.CS(=O)(=O)O [DIHYDROERGOCRISTINE MESYLATE] |  | Not Active | Not Active | Not Active | Not Active | Not Active | Not Active | Not Active | Not Active | Not Active | 3.31 µM | 2.48 µM |  | 
C1CCC(C(CC2CCCCN2)C2CCCCC2)CC1 (configuration not stated) [PERHEXILINE] | Not Active |  | Not Active | Not Active | Not Active | Not Active | Not Active | Not Active | Not Active | Not Active |  |  | 3.29 µM | 3.27 µM
c1ccc2c(c1)c1cccc3ccc4cccc2c4c31 [BENZO[E]PYRENE] | Not Active | Not Active | Not Active | Not Active | Not Active | Not Active | Not Active | Not Active | Not Active | Not Active |  |  |  | 
C[C@]12CC[C@@H]3c4ccc(O)cc4CC[C@H]3[C@@H]1CCC2=O [ESTRONE] | Not Active | Not Active | Not Active | Not Active | Not Active | Not Active | Not Active | Not Active | Not Active | Not Active |  |  |  | 
CNCCc1ccccn1 [BETAHISTINE] | Not Active | Not Active | Not Active | Not Active | Not Active | Not Active | Not Active | Not Active | Not Active | Not Active |  |  |  | 
Cc1ccccc1N1C(=O)c2cc(S(N)(=O)=O)c(Cl)cc2NC1C (configuration not stated) [METOLAZONE] | Not Active | Not Active | Not Active | Not Active | Not Active | Not Active | Not Active | Not Active | Not Active | Not Active |  |  |  | 
O=C1CC[C@@H](N2C(=O)c3ccccc3C2=O)C(=O)N1 | Not Active | Not Active | Not Active | Not Active | Not Active | Not Active | Not Active | Not Active | Not Active | Not Active |  |  |  | 
Nc1c(Br)cc(Br)cc1CN[C@H]1CC[C@H](O)CC1 [AMBROXOL] | Not Active | Not Active | Not Active | Not Active | Not Active | Not Active | Not Active | Not Active | Not Active | Not Active |  |  |  | 
